This note sets out measurements from PubChem BioAssay (NCI).

Several values for one entry are separate records, joined by “and”; a condition that tells them apart may be missing. Equal values may be shown once.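 1) Cells in 96-well plates. 2) Compound, 48 h, 5 concentrations. 3) Linear interpolation between surrounding doses. 4) Unreached endpoint = highest concentration. GI50: concentration for 50% inhibition of growth. Definition used: TGI = concentration required for complete inhibition of growth.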

Among the test systems are M19-MEL melanoma; XF 498 CNS; HOP-18 NSCLC; SNB-78 CNS; DLD-1 colon; DMS 273 small cell lung; KM20L2 colon; MDA-N; RXF-631 renal; P388 leukemia; SN12K1 renal; P388/ADR leukemia.
Common to all, as to assay: NCI tumour cell line growth inhibition, 48 h

`Cc1cc(Cl)ccc1N=C1NC(=O)C(CC(=O)Nc2cccc(Cl)c2)S1` (configuration not stated): the TGI in the test on M19-MEL melanoma, in the test with XF 498 CNS, in the test with HOP-18 NSCLC, in the test with SNB-78 CNS, with DLD-1 colon and in the test on DMS 273 small cell lung was > 100 µM in each case. Further, the TGI in the test on KM20L2 colon was > 100 µM.
Turning to `N=C(N)c1ccc2oc3ccc(C(=N)N)cc3c(=O)c2c1`, the TGI in the test with MDA-N was > 100 µM.
With `CC(C)(Oc1ccc(-c2cccc3ccccc23)cc1)C(=O)O`, the TGI in the test with MDA-N was > 100 µM.
As to `O=P(CN1CCOCC1)(c1ccccc1)c1ccccc1`, the TGI in the test on M19-MEL melanoma, in the test with XF 498 CNS, with SNB-78 CNS, with RXF-631 renal and with DMS 273 small cell lung was > 100 µM in each case.
Consider `O=C(Nc1ccn(C2CC(O)C(COC(c3ccccc3)(c3ccccc3)c3ccccc3)O2)c(=O)n1)c1ccccc1` (configuration not stated), for which the TGI in the test on MDA-N is 3.99 µM.
As to `COC(=O)CC1(O)C(=O)OCc2c1cc1n(c2=O)Cc2c-1nc1ccccc1c2OC` (configuration not stated), the TGI is > 100 µM with M19-MEL melanoma; 40 µM in the test on XF 498 CNS; > 100 µM in the test on HOP-18 NSCLC; > 100 µM with SNB-78 CNS; > 100 µM with RXF-631 renal; > 100 µM in the test with DLD-1 colon. For the same compound, the TGI is 3.35 µM in the test on DMS 273 small cell lung and > 100 µM in the test with KM20L2 colon.
Consider `CC1(C)CC(O)CC(C)(C)N1O`, for which the TGI in the test on MDA-N is > 100 µM.
As for `O=c1[nH]c2cc(Cl)ccc2nc1/C(=N\Nc1ccccc1)C(O)c1ccc2c(c1)OCO2` (configuration not stated), in the test with MDA-N, the TGI is > 100 µM.
Take `COc1cccc(/C=C2\N=C(c3ccccc3)OC2=O)c1`: the TGI in the test on MDA-N is > 100 µM.
Turning to `O=C1/C(=C/c2ccc(Cl)cc2)CCC1CNc1ccc(Cl)cc1` (configuration not stated), the TGI in the test on M19-MEL melanoma was > 50.4 µM; in the test on XF 498 CNS, 29.5 µM; with HOP-18 NSCLC it was > 74.5 µM; with SNB-78 CNS, > 100 µM; in the test on MDA-N, 40.4 µM; in the test on DLD-1 colon it was 10.7 µM. Moreover, the TGI in the test on DMS 273 small cell lung was > 39.9 µM; in the test on KM20L2 colon, 12.6 µM.
For the compound `COc1ccc(/C=C/C(=O)c2c(-c3ccccc3)nn(C)c(=O)c2N2CC2C)cc1` (configuration not stated), the TGI is > 100 µM in the test with M19-MEL melanoma; > 100 µM with HOP-18 NSCLC; 63.1 µM with SNB-78 CNS; > 100 µM in the test with DLD-1 colon; 68.5 µM in the test on DMS 273 small cell lung; 80 µM with KM20L2 colon.
Turning to `COC(=O)c1c(C(=O)OC)c(-c2ccccc2)n(-c2ccccc2)c(=O)c1-c1ccccc1`, the TGI in the test with M19-MEL melanoma was > 100 µM; in the test with XF 498 CNS it was 68.8 µM; in the test on SNB-78 CNS it was > 100 µM; in the test with DLD-1 colon, > 100 µM; in the test on DMS 273 small cell lung, > 100 µM; in the test with KM20L2 colon, > 100 µM.
Consider `Cc1nc2c(C)ccc([N+](=O)[O-])c2c(NCCCN(C)C)c1C`, for which the TGI with MDA-N was > 100 µM.
With `CC(C)c1ccc(O)c(Cc2cc(C(C)C)cc(Cc3cc(C(C)C)ccc3O)c2O)c1`, the TGI in the test on M19-MEL melanoma amounted to 2.99 µM; with XF 498 CNS it was 2.73 µM; in the test on SNB-78 CNS it was 4.54 µM; in the test with DLD-1 colon, 4.15 µM; in the test on KM20L2 colon it was 5.55 µM.
Turning to `CC1[C@@]2(CCC(C)(C)O2)O[C@@H]2C=C3C4CCC5Cc6nc7c(nc6C[C@@]5(C)C4C[C@H](O)[C@@]3(C)[C@]12O)CC1CCC2C3=C[C@H]4O[C@@]5(O[C@@](C)(CO)C[C@@H]5O)C(C)[C@@]4(O)[C@]3(C)[C@@H](O)CC2[C@]1(C)C7` (some centres not stated), the TGI in the test on P388 leukemia is 0.734 µM; with SN12K1 renal it was 0.395 µM; in the test with M19-MEL melanoma it was 0.791 µM; in the test on SNB-78 CNS it was 0.464 µM and 0.312 µM; in the test with RXF-631 renal, 0.213 µM; in the test on P388/ADR leukemia it was 1.16 µM. For the same compound, the TGI is 1.11 µM in the test with DLD-1 colon; 0.478 µM and 0.089 µM in the test on KM20L2 colon. Further, the GI50 in the test on M19-MEL melanoma was 0.336 µM; with XF 498 CNS, 0.00488 µM; in the test on SNB-78 CNS, 0.0015 µM; in the test with DLD-1 colon, 0.0805 µM; with DMS 273 small cell lung, < 0.000365 µM; with KM20L2 colon, 0.00289 µM.
Take `O=C(/C=C/c1ccccc1)c1ccc(Cl)cc1Cl`: the TGI in the test with M19-MEL melanoma was 44.5 µM; with HOP-18 NSCLC it was 60.5 µM; with SNB-78 CNS, 49.3 µM; with RXF-631 renal, > 100 µM; in the test on DLD-1 colon it was 33.3 µM; in the test on DMS 273 small cell lung, 34 µM. This compound yielded a TGI with KM20L2 colon of 45.7 µM.
As for `Cc1cc(N(CCC#N)CCC#N)ccc1/C=C(\NC(=O)/C=C/c1ccccc1)C(=O)Nc1ccccc1Cl`, the TGI in the test on M19-MEL melanoma, in the test on SNB-78 CNS, in the test with DLD-1 colon, in the test on DMS 273 small cell lung and with KM20L2 colon was > 100 µM each time.
On to `OCCCN=C1CCCCC1`, for which the TGI in the test with MDA-N was > 100 µM.
With `O=C1CCC(c2ccccc2)=NN1c1nc2ccccc2s1`, the TGI in the test with M19-MEL melanoma is > 100 µM; in the test with XF 498 CNS, 86.7 µM; in the test with HOP-18 NSCLC, > 100 µM; with SNB-78 CNS it was > 100 µM; in the test with MDA-N it was > 100 µM; in the test on DLD-1 colon, > 100 µM. Further, in the test on DMS 273 small cell lung, the TGI is > 100 µM.
Consider `Cc1cc(C)c2nc3c(c(C(O)C4CCCCN4)c2c1)CC/C3=C\c1ccc(Cl)cc1` (configuration not stated), for which, in the test on MDA-N, the TGI is > 100 µM.
